Values joined by “and” are separate entries in the source; they are usually repeats but may differ in a detail not shown here. Equal values may be shown once. Inconclusive results and toxic doses are left out. How the source made its calls: active means survival T/C of 150% or more; inactive means T/C below 125% in these data.
Test system: CD2F1 mice, L1210 leukemia ip, survival T/C
Experiment: NCI In Vivo Anticancer Drug Screen. Data for tumor model L1210 Leukemia (intraperitoneal) in CD2F1 (CDF1) mice
Settings: higher = longer survival
Outline: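 Mice carrying a transplanted tumor received test compound or vehicle alone. The value is the measurement in the treated group divided by that in the vehicle-treated control group.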

[1] = endpoint: mean survival time, dose: 100.0 mg/kg/injection, schedule: Q04DX002 (ip), vehicle: saline with Tween-80
[2] = endpoint: mean survival time, dose: 100.0 mg/kg/injection, schedule: Q04DX003 (ip), vehicle: other
[3] = endpoint: mean survival time, dose: 200.0 mg/kg/injection, schedule: Q04DX003 (ip), vehicle: other
[4] = endpoint: mean survival time, dose: 400.0 mg/kg/injection, schedule: Q04DX003 (ip), vehicle: other
[5] = endpoint: mean survival time, dose: 100.0 mg/kg/injection, schedule: Q01DX001 (ip), vehicle: saline
[6] = endpoint: mean survival time, dose: 200.0 mg/kg/injection, schedule: Q01DX001 (ip), vehicle: saline
[7] = endpoint: mean survival time, dose: 400.0 mg/kg/injection, schedule: Q01DX001 (ip), vehicle: saline
[8] = endpoint: mean survival time, dose: 100.0 mg/kg/injection, schedule: Q04DX003 (ip), vehicle: saline with Tween-80
[9] = endpoint: mean survival time, dose: 200.0 mg/kg/injection, schedule: Q04DX003 (ip), vehicle: saline with Tween-80
[10] = endpoint: mean survival time, dose: 400.0 mg/kg/injection, schedule: Q04DX003 (ip), vehicle: saline with Tween-80
[11] = endpoint: mean survival time, dose: 100.0 mg/kg/injection, schedule: Q04DX003 (ip), vehicle: saline
[12] = endpoint: mean survival time, dose: 100.0 mg/kg/injection, schedule: Q01DX009 (ip), vehicle: saline with Tween-80
[13] = endpoint: mean survival time, dose: 200.0 mg/kg/injection, schedule: Q01DX009 (ip), vehicle: saline with Tween-80
[14] = endpoint: mean survival time, dose: 400.0 mg/kg/injection, schedule: Q01DX009 (ip), vehicle: saline with Tween-80
[15] = endpoint: mean survival time, dose: 50.0 mg/kg/injection, schedule: Q01DX009 (ip), vehicle: saline
[16] = endpoint: mean survival time, dose: 100.0 mg/kg/injection, schedule: Q01DX009 (ip), vehicle: saline
[17] = endpoint: mean survival time, dose: 100.0 mg/kg/injection, schedule: Q01DX001 (ip), vehicle: saline with Tween-80

Measured: T/C

O=C(NC/C=C/Br)Oc1cccc2ccccc12
inactive: [1] 101 % of control | endpoint: mean survival time, dose: 200.0 mg/kg/injection, schedule: Q04DX002 (ip), vehicle: saline with Tween-80 93 % of control | endpoint: mean survival time, dose: 400.0 mg/kg/injection, schedule: Q04DX002 (ip), vehicle: saline with Tween-80 101 % of control

CC(=O)OCC1OC([S][Sb]([CH3])[CH3])C(OC(C)=O)C(OC(C)=O)C1OC(C)=O (stereo not drawn)
inactive: endpoint: mean survival time, dose: 50.0 mg/kg/injection, schedule: Q01DX009 (ip), vehicle: Klucel (hydroxypropylcellulose) (HPC) 92 % of control

CO[C@@]12[C@@H]3N[C@@H]3CN1C1=C(C(=O)C(Nc3nc(C)cs3)=C(C)C1=O)[C@@H]2COC(N)=O
inactive: endpoint: mean survival time, dose: 1.5 mg/kg/injection, schedule: Q01DX001 (ip), vehicle: water 116 % of control and 112 % of control | endpoint: mean survival time, dose: 3.0 mg/kg/injection, schedule: Q01DX001 (ip), vehicle: water 115 % of control | endpoint: mean survival time, dose: 6.0 mg/kg/injection, schedule: Q01DX001 (ip), vehicle: water 121 % of control

O=C1C2CC(Cl)C(SSC3CC4C(=O)N(SC(Cl)(Cl)C(Cl)Cl)C(=O)C4CC3Cl)CC2C(=O)N1SC(Cl)(Cl)C(Cl)Cl (stereo not drawn)
inactive: endpoint: median survival time, dose: 6.25 mg/kg/injection, schedule: Q01DX009 (ip), vehicle: saline with Tween-80 101 % of control | endpoint: median survival time, dose: 12.5 mg/kg/injection, schedule: Q01DX009 (ip), vehicle: saline with Tween-80 95 % of control | endpoint: median survival time, dose: 25.0 mg/kg/injection, schedule: Q01DX009 (ip), vehicle: saline with Tween-80 98 % of control and 100 % of control | endpoint: median survival time, dose: 50.0 mg/kg/injection, schedule: Q01DX009 (ip), vehicle: saline with Tween-80 101 % of control and 102 % of control | endpoint: median survival time, dose: 100.0 mg/kg/injection, schedule: Q01DX009 (ip), vehicle: saline with Tween-80 100 % of control and 102 % of control | endpoint: median survival time, dose: 200.0 mg/kg/injection, schedule: Q01DX009 (ip), vehicle: saline with Tween-80 102 % of control | endpoint: median survival time, dose: 400.0 mg/kg/injection, schedule: Q01DX009 (ip), vehicle: saline with Tween-80 105 % of control

Cc1cc2c(cc1C)N(C(=O)CN1CCCCC1)CC(=O)N2
inactive: endpoint: mean survival time, dose: 75.0 mg/kg/injection, schedule: Q04DX003 (ip), vehicle: saline 94 % of control | endpoint: mean survival time, dose: 150.0 mg/kg/injection, schedule: Q04DX003 (ip), vehicle: saline 89 % of control

Cc1ccc2c(c1)CCCN2C(=O)c1ccccc1
inactive: [2] 89 % of control | [3] 92 % of control | [4] 94 % of control

O=[N+]([O-])CS(=O)(=O)N1CCOCC1
inactive: [5] 103 % of control | [6] 106 % of control | [7] 110 % of control

CCOC(=O)C1OC1(C)c1ccc(Cl)cc1 (stereo not drawn)
inactive: [2] 95 % of control | [3] 110 % of control | [4] 96 % of control

CCOC(=O)C1CNC(=O)C1=O (stereo not drawn)
inactive: [5] 106 % of control | [8] 100 % of control | [6] 110 % of control | [9] 101 % of control | [7] 106 % of control | [10] 95 % of control

CCC(CC(=O)O)c1ccccc1 (stereo not drawn)
inactive: endpoint: mean survival time, dose: 50.0 mg/kg/injection, schedule: Q04DX003 (ip), vehicle: saline 96 % of control | [11] 100 % of control | endpoint: mean survival time, dose: 200.0 mg/kg/injection, schedule: Q04DX003 (ip), vehicle: saline 102 % of control

O=C(c1ccc(Cl)cc1)C(O)c1ccc(Cl)cc1 (stereo not drawn)
inactive: [12] 93 % of control | [8] 100 % of control | [13] 98 % of control | [9] 96 % of control | [14] 107 % of control | [10] 91 % of control

O=C(NC/C=C/Br)NC1CCCc2ccccc21 (stereo not drawn)
inactive: [2] 96 % of control | [3] 102 % of control | [4] 96 % of control

CNc1ncnc2c(C3OC(CO)C(O)C3O)[nH]nc12 (stereo not drawn)
inactive: endpoint: mean survival time, dose: 25.0 mg/kg/injection, schedule: Q01DX005 (ip), vehicle: water 108 % of control | endpoint: mean survival time, dose: 50.0 mg/kg/injection, schedule: Q01DX005 (ip), vehicle: water 120 % of control | endpoint: mean survival time, dose: 100.0 mg/kg/injection, schedule: Q01DX005 (ip), vehicle: water 96 % of control

NC1(CO)COC(c2ccccc2)OC1 (stereo not drawn)
inactive: endpoint: mean survival time, dose: 25.0 mg/kg/injection, schedule: Q01DX009 (ip), vehicle: saline 93 % of control | [15] 96 % of control | [16] 96 % of control

COC(=O)C(N)CS (stereo not drawn)
inactive: [8] 101 % of control | [9] 101 % of control | [10] 106 % of control

CCc1ccc(OS(=O)(=O)c2cccc([N+](=O)[O-])c2)cc1
inactive: [12] 98 % of control | [8] 94 % of control | [13] 91 % of control | [9] 105 % of control | [14] 102 % of control | [10] 100 % of control

C1CCCC(NC2=NCCO2)CC1
inactive: endpoint: mean survival time, dose: 6.25 mg/kg/injection, schedule: Q04DX003 (ip), vehicle: saline with Tween-80 98 % of control | endpoint: mean survival time, dose: 12.5 mg/kg/injection, schedule: Q04DX003 (ip), vehicle: saline with Tween-80 97 % of control | endpoint: mean survival time, dose: 25.0 mg/kg/injection, schedule: Q04DX003 (ip), vehicle: saline with Tween-80 98 % of control

CN(C)c1nc(-c2ccncc2)nc(N(C)C)n1
inactive: [1] 92 % of control

O=C(C[n+]1cccc(C(=O)NCc2ccccc2)c1)Nc1ccc(Cl)cc1
inactive: [11] 94 % of control

Nc1ccc(S(=O)(=O)Nc2cnc3c(Cl)cccc3n2)cc1
inactive: endpoint: median survival time, dose: 100.0 mg/kg/injection, schedule: Q01DX005 (ip), vehicle: DMSO 98 % of control | endpoint: median survival time, dose: 200.0 mg/kg/injection, schedule: Q01DX005 (ip), vehicle: DMSO 98 % of control | endpoint: median survival time, dose: 400.0 mg/kg/injection, schedule: Q01DX005 (ip), vehicle: DMSO 98 % of control | endpoint: median survival time, dose: 800.0 mg/kg/injection, schedule: Q01DX005 (ip), vehicle: DMSO 105 % of control

CC(C)(C)CC(C)(C)c1ccc(O)cc1O
inactive: endpoint: mean survival time, dose: 25.0 mg/kg/injection, schedule: Q01DX009 (ip), vehicle: saline with Tween-80 105 % of control | endpoint: mean survival time, dose: 50.0 mg/kg/injection, schedule: Q01DX009 (ip), vehicle: saline with Tween-80 103 % of control | [17] 101 % of control | [12] 94 % of control

CN(C)CC1CCCCN1 (stereo not drawn)
inactive: [15] 94 % of control | [16] 94 % of control | endpoint: mean survival time, dose: 200.0 mg/kg/injection, schedule: Q01DX009 (ip), vehicle: saline 94 % of control

Cc1c(Cl)c(C)c(Cl)c(O)c1Cl
inactive: [12] 96 % of control | [13] 100 % of control | [14] 87 % of control

CC(=O)OCC1OC(OC(C)=O)C(NC(=O)NCCI)C(OC(C)=O)C1OC(C)=O (stereo not drawn)
inactive: endpoint: mean survival time, dose: 12.5 mg/kg/injection, schedule: Q01DX009 (ip), vehicle: other 93 % of control | endpoint: mean survival time, dose: 25.0 mg/kg/injection, schedule: Q01DX009 (ip), vehicle: other 95 % of control | endpoint: mean survival time, dose: 50.0 mg/kg/injection, schedule: Q01DX009 (ip), vehicle: other 92 % of control | endpoint: mean survival time, dose: 100.0 mg/kg/injection, schedule: Q01DX009 (ip), vehicle: other 88 % of control | endpoint: mean survival time, dose: 200.0 mg/kg/injection, schedule: Q01DX009 (ip), vehicle: other 98 % of control

CCN=Cc1ccccc1O.CCN=Cc1ccccc1O.[Pd]
inactive: [17] 106 % of control | endpoint: mean survival time, dose: 200.0 mg/kg/injection, schedule: Q01DX001 (ip), vehicle: saline with Tween-80 95 % of control | endpoint: mean survival time, dose: 400.0 mg/kg/injection, schedule: Q01DX001 (ip), vehicle: saline with Tween-80 95 % of control

CC(=O)c1ccc2sc3ccccc3c2c1
inactive: [12] 98 % of control | [13] 93 % of control | [14] 93 % of control
